Reference: patent US5455267A, “Chromone derivative, and aldose reductase inhibitor comprising said compound as active component” (Tsumura & Co., priority 1990, dated 1995)

Target: T1, aldose reductase (Rattus norvegicus, UniProt P07943)
T1 construct: The crystalline lenses were homogenized in 135 mM sodium-potassium-phosphate buffer (pH 7.0) and centrifuged; from tissue; host or cells: lens of 6 week-old Wistar rats (30,000 rpm supernatant of homogenate)
Assay: Determination of Aldose Reductase Activity (In Vitro)
Assay type: biochemical, rat (Wistar)
Details: Table 3; for inhibition at 10 µM: at the concentration of 10 μM, read-out: Inhibition rate %; for IC50: rat lens aldose reductase, 20 mM glucose, 30 min, 30° C, pH 7.0, read-out: 50% Inhibition Conc. [IC50 (M)]
Protocol: 6 week-old Wistar rats were sacrificed under ether anesthesia, and immediately lenses were removed and stored at -20° C. The crystalline lenses were homogenized in 135 mM sodium-potassium-phosphate buffer (pH 7.0) and centrifuged for 30 min. at 30,000 rpm. The supernatant was used as an aldose-reductase solution. The above procedure was carried out at 4° C. The enzyme solution was stored at -20° C.
The measurement of aldose reductase activity was conducted according to the method as described by Duffane et al. (Biochemical Medicine, 32:99-105 (1984)).
That is, 100 gl of the above enzyme solution and 100 gl of a solution prepared by dissolving a compound obtained in the following example to a final concentration of from 1.0×10^-5 to 4.0×10^-7 M in dimethylsulfoxide (DMSO) were added to 800 gl of 135 mM sodium-potassium-phosphate buffer (pH 7.0) containing 100 mM lithium sulfate, 0.03 mM NADPH (reduced form of nicotinamide adeninc dinucleotide phosphate) and 20 mM glucose as a substrate. The sample was allowed to react for 30 min. at 30° C. The reaction was stopped by addition of 0.3 ml of 0.5N hydrochloric acid. The NADP (oxided form of nicotinamide adenine dinucleotide) formed during the above reaction was converted into a fluorescent substance by addition of 1 ml of 6N sodium hydroxide containing 10 mM imidazole. 30 min. thereafter, the sample was measured for fluorescence intensity at the fluorescence wavelength of 460 nm (excitation wavelength: 360 nm) using a fluorescence photometer F-4000 (manufactured by Hitachi, Ltd.) at room temperature. A sample containing DMSO in place of the present compound was used as a control, and its fluorescence intensity was determined in the same manner as above.
Aldose reductase is an enzyme to convert DL-glyceraldehyde or glucose into polyol in the presence of NADPH as a coenzyme. As this reaction proceeds, NADPH is converted into NADP, so that the smaller amount of NADP formed indicates higher inhibition of aldose reductase. […]

Row | Structure (SMILES) | inhibition at 10 µM | IC50
1 | CCC(C)Oc1cc2oc(Sc3ccc(O)cc3)cc(=O)c2c(OC(C)CC)c1OC (stereo not shown) [Example 15, 5,7-di-s-butoxy-2-(4-hydroxyphenylthio)-6-methoxychromone] | 98.4% | 3.8e-08 M
2 | COc1c(OC(C)C)cc2oc(Sc3ccc(O)cc3)cc(=O)c2c1OC(C)C [Example 13, 5,7-diisopropoxy-2-(4-hydroxyphenylthio)-6-methoxychromone] | 93.7% | 1.8e-08 M
3 | COc1cc(OC)c2c(=O)cc(Sc3ccccn3)oc2c1 [Example 58, 5,7-dimethoxy-2-(2-pyridylthio)chromone] | 37.4% | –
4 | COc1cc(OC)c2c(=O)cc(Sc3cccc(C)c3)oc2c1 [Example 53, 5,7-dimethoxy-2-(3-methylphenylthio)chromone] | 22.8% | –
5 | CCOc1c(OC)c(OCC=C(C)C)cc2oc(Sc3ccc(O)cc3)cc(=O)c12 [Example 31, 5-ethoxy-2-(4-hydroxyphenylthio)-6-methoxy-7-prenyloxychromone] | 100% | 2.3e-07 M
6 | COc1c(OCC(C)C)cc2oc(Sc3ccc(O)cc3)cc(=O)c2c1OC(C)C [Example 17, 2-(4-hydroxyphenylthio)-7-isobutoxy-5-isopropoxy-6-methoxychromone] | 95.1% | 1.3e-07 M
7 | CCCCOc1cc2oc(Sc3ccc(O)cc3)cc(=O)c2c(OCCCC)c1OC [Example 14, 5,7-dibutoxy-2-(4-hydroxyphenylthio)-6-methoxychromone] | 86.8% | 1.9e-07 M
8 | COc1cc(OC)c2c(=O)cc(Sc3cccc(Cl)c3)oc2c1 [Example 43, 5,7-dimethoxy-2-(3-chlorophenylthio)chromone] | 44% | –
9 | COc1c(OC(C)C)cc2oc(Sc3ccc(O)c(Cl)c3)cc(=O)c2c1OC(C)C [Example 19, 2-(3-chloro-4-hydroxyphenylthio)-5,7-diisopropoxy-6-methoxychromone] | 69.8% | 4e-06 M
10 | COc1cccc(Sc2cc(=O)c3c(OC)cc(OC)cc3o2)c1 [Example 47, 5,7-dimethoxy-2-(3-methoxyphenylthio)chromone] | 36.5% | –
11 | CCCOc1cc2oc(Sc3ccc(O)cc3)cc(=O)c2c(OCCC)c1OC [Example 12, 5,7-dipropoxy-2-(4-hydroxyphenylthio)-6-methoxychromone] | 93% | 1.5e-07 M
12 | COc1c(OC(C)C)cc2oc([S+]([O-])c3ccc(O)cc3)cc(=O)c2c1OC (stereo not shown) [Compound 1 obtained in Example 34, 5,6-dimethoxy-2-(4-hydroxyphenylsulfinyl)-7-isopropoxychromone] | 98% | 4.6e-07 M
13 | COc1cc(O)c2c(=O)cc(Nc3ccc(O)cc3)oc2c1 [Compound 2 obtained in Example 77, 5-hydroxy-2-(4-hydroxyanilino)-7-methoxychromone] | 40% | –
14 | COc1cc2oc(Sc3ccc(O)cc3)cc(=O)c2c(O)c1OC [Example 2, 5-hydroxy-2-(4-hydroxyphenylthio)-6,7-dimethoxychromone] | 87.1% | 1.1e-07 M
15 | COc1cc(OC)c2c(=O)cc(Sc3ccccc3OC)oc2c1 [Example 46, 5,7-dimethoxy-2-(2-methoxyphenylthio)chromone] | 28.4% | –
16 | COc1c(OC(C)=O)cc2oc(Sc3ccc(O)cc3)cc(=O)c2c1O [Compound 2 obtained in Example 28, 7-acetoxy-5-hydroxy-2-(4-hydroxyphenylthio)-6-methoxychromone] | 95.4% | 3e-07 M
17 | CCOc1cc2oc(Sc3ccc(O)cc3)cc(=O)c2c(OCC)c1OC [Example 11, 5,7-diethoxy-2-(4-hydroxyphenylthio)-6-methoxychromone] | 98.5% | 4e-08 M
18 | COc1cc(OC)c2c(=O)cc(Sc3ccccc3)oc2c1 [Example 41, 5,7-dimethoxy-2-phenylthiochromone] | 52.4% | –
19 | COc1cc(OC)c2c(=O)cc(Sc3ccccc3N)oc2c1 [Example 49, 5,7-dimethoxy-2-(2-aminophenylthio)chromone] | 48.2% | –
20 | COc1cc(OC)c2c(=O)cc(Sc3ccccc3O)oc2c1 [Example 56, 2-(2-hydroxyphenylthio)-5,7-dimethoxychromone] | 35.9% | –
21 | COc1c(OC(C)C)cc2oc(Sc3ccc(O)cc3)cc(=O)c2c1O [Example 26, 5-hydroxy-2-(4-hydroxyphenylthio)-7-isopropoxy-6-methoxychromone] | 98.1% | 6.5e-08 M
22 | COc1c(OC(C)C)cc2oc(S(=O)(=O)c3ccc(O)cc3)cc(=O)c2c1OC [Compound 2 obtained in Example 34, 5,6-dimethoxy-2-(4-hydroxyphenylsulfonyl)-7-isopropoxychromone] | 96.6% | 1e-06 M
23 | COc1cc(OC)c2c(=O)cc(Sc3cccc(O)c3)oc2c1 [Example 57, 2-(3-hydroxyphenylthio)-5,7-dimethoxychromone] | 50.5% | –
24 | COc1cc(OC)c2c(=O)cc(Sc3ccccc3Cl)oc2c1 [Example 42, 5,7-dimethoxy-2-(2-chlorophenylthio)chromone] | 47.7% | –
25 | COc1c(OC(C)=O)cc2oc(Sc3ccc(O)cc3)cc(=O)c2c1OC(C)=O [Compound 1 obtained in Example 28, 5,7-diacetoxy-2-(4-hydroxyphenylthio)-6-methoxychromone] | 95.4% | 1.7e-07 M
26 | COc1cc(OC)c2c(=O)cc(Sc3ccccc3C)oc2c1 [Example 52, 5,7-dimethoxy-2-(2-methylphenylthio)chromone] | 31.7% | –

Other lines, results leading:

Row | inhibition at 10 µM | IC50 | Structure (SMILES)
27 | 43.5% | – | O=c1cc(SCc2ccc(O)cc2)oc2cc(O)cc(O)c12 [Example 75, 5,7-dihydroxy-2-(4-hydroxybenzylthio)chromone]
28 | 84% | 1e-07 M | COc1cc(O)c2c(=O)cc(Sc3ccc(O)cc3)oc2c1 [Example 72, 5-hydroxy-2-(4-hydroxyphenylthio)-7-methoxychromone]
29 | 31.5% | – | COc1cc(OC)c2c(=O)cc(Sc3ccc(CO)cc3)oc2c1 [Example 66, 5,7-dimethoxy-2-(4-hydroxymethyl-phenylthio)chromone]
30 | 31.1% | – | COc1cc(OC)c2c(=O)cc(Sc3nnc(N)s3)oc2c1 [Example 63, 2-(2-amino-5-thiadiazolylthio)-5,7-dimethoxychromone]
31 | 16.4% | – | COc1ccc(CSc2cc(=O)c3c(OC)cc(OC)cc3o2)cc1 [Example 73, 5,7-dimethoxy-2-(4-methoxybenzylthio)chromone]
32 | 85.5% | 1e-06 M | COc1cc(OC)c2c(=O)cc(Oc3ccc(O)cc3)oc2c1 [Example 70, 2-(4-hydroxyphenoxy)-5,7-dimethoxychromone]
33 | 52.9% | – | COc1cc(OC)c2c(=O)cc(Sc3ccc(C(=O)O)cc3)oc2c1 [Example 64, 4-(5,7-dimethoxychromonyl-2-thio)benzoic acid]
34 | 37.1% | – | COc1cc(OC)c2c(=O)cc(Sc3ccncc3)oc2c1 [Example 59, 5,7-dimethoxy-2-(4-pyridylthio)chromone]
35 | 88.7% | 1e-07 M | COc1cc(OC)c2c(=O)cc(Sc3ccc(O)cc3)oc2c1 [Example 71, 2-(4-hydroxyphenylthio)-5,7-dimethoxychromone]
36 | 23.1% | – | COC(=O)c1ccc(Sc2cc(=O)c3c(OC)cc(OC)cc3o2)cc1 [Example 65, methyl 4-(5,7-dimethoxychromonyl-2-thio)benzoate]
37 | 52.1% | – | COc1cc(O)c2c(=O)cc(SCc3ccc(O)cc3)oc2c1 [Example 74, 5-hydroxy-2-(4-hydroxybenzylthio)-7-methoxychromone]
38 | 97.7% | – | CC(C)Oc1cc(OC(C)C)c2c(=O)cc(Sc3ccc(O)cc3)oc2c1 [Example 69, 5,7-diisopropoxy-2-(4-hydroxyphenylthio)chromone]
